One data set concerns RAW 264.7 cells. Kind of data set: Cytotoxicity against RAW 264.7 cells (CCK-8 method). As to conditions: for Therapeutic Index (TI, = TC50/IC50) / Cytotoxicity TC50: investigated compounds; for Cytotoxicity TC50: 24 h, CCK-8. In general terms: Tetrazolium dyes change colour on reduction, which living cells bring about.
In data set [1] the test system is NO production in LPS-induced RAW 264.7 cells. Kind of data set: Inhibitory effect on NO production in LPS-induced RAW 264.7 cells (Griess reagent). Format: cell-based. As to conditions: for IC50: Mus musculus, RAW264.7; for IC50 / NO Inhibitory Effect IC50: investigated compounds, LPS (1 µg/mL)-induced RAW 264.7 cells, 24 h. As to the method:
The culture medium was replaced with DMEM medium containing various concentrations of TGT or target compound, subsequently treated with LPS (1 µg/mL), and then incubated for 24 h. After 50 µL of cultured medium was transferred to a new 96-well plate, 50 µL of Griess reagent was added to each well. The absorbance at 540 nm was determined using a microplate reader (PerkinElmer, Waltham, MA, USA). The concentration of NO in the culture supernatants was calculated by using a standard curve of nitrite, a major stable product of NO, which was generated according to the application instructions for the Griess reagent.

On the set-up of data set [2]: method as in PMID 29787994. The following applies: reported in the literature ref [20]; cited from earlier work.

Some results are limits rather than exact numbers.

In general, IC50 refers to the concentration needed to halve the response being measured. Take `CC1=C(O)C(=O)C=C2C1=CC=C1[C@@]2(C)CC[C@@]2(C)[C@@H]3C[C@](C)(C(=O)O)CC[C@]3(C)CC[C@]12C` [celastrol]: in the data set on RAW 264.7 cells, the “Therapeutic Index (TI, = TC50/IC50)” value is on record as 3.07 and the “Cytotoxicity TC50” value was 1.72 µM. Further, in data set [1], inhibition was half-maximal at 0.56 µM (IC50).

As to `C[C@@]1(C(=O)O)CC[C@]2(C)CC[C@]3(C)C4=CC(=O)c5c(cc(O)c(O)c5C=O)[C@]4(C)CC[C@@]3(C)[C@@H]2C1` [demethylzeylasteral], in the data set with RAW 264.7 cells, the “Therapeutic Index (TI, = TC50/IC50)” value is given as 7.93 and the “Cytotoxicity TC50” value worked out at 27.59 µM. Moreover, half-maximal inhibition in data set [1] (IC50) required 3.48 µM.

Take `CC(=O)OC[C@]12[C@H](OC(C)=O)[C@H](OC(C)=O)[C@@H]3[C@@H](OC(C)=O)[C@@]14O[C@@]3(C)COC(=O)c1cccnc1C(C)C(C)C(=O)O[C@@H]([C@H](OC(C)=O)[C@@H]2OC(C)=O)[C@]4(C)O` (stereo partly shown) [euonymine]: the “Cytotoxicity TC50” value in the data set with RAW 264.7 cells is given as “nu (Had no NO inhibitory effect or cytotoxicity with an NO production rate less than 0 or cell viability more than 100% at a concentration of 50 μM)”. This compound gave an IC50 in data set [1] greater than 50 µM.

As to `CC(=O)OCC12C(OC(C)=O)C(OC(C)=O)C3C(O)C14OC3(C)COC(=O)c1cccnc1C(C)C(C)C(=O)OC(C(OC(C)=O)C2OC(C)=O)C4(C)O` (stereo not shown) [neoeunymine], the “Cytotoxicity TC50” value in the data set with RAW 264.7 cells was “nu (Had no NO inhibitory effect or cytotoxicity with an NO production rate less than 0 or cell viability more than 100% at a concentration of 50 μM)”. Moreover, the IC50 in data set [1] was greater than 50 µM.

In the case of `CC(=O)OCC12C(OC(C)=O)C(OC(C)=O)C3C(OC(C)=O)C14OC3(C)COC(=O)c1cnccc1C(C)C(C)C(=O)OC(C(OC(C)=O)C2OC(C)=O)C4(C)O` (stereo not shown) [peritassine A], the “Cytotoxicity TC50” value in the data set on RAW 264.7 cells is “nu (Had no NO inhibitory effect or cytotoxicity with an NO production rate less than 0 or cell viability more than 100% at a concentration of 50 μM)”. This compound also came in with an IC50 in data set [1] greater than 50 µM.

On to `C[C@@]1(O)C[C@@]23CC[C@H]4[C@@]5(CCC[C@]4(C)C(=O)OC5)[C@@H]2CC[C@H]1C3` [tripterifordin], for which the “Cytotoxicity TC50” value in the data set with RAW 264.7 cells was “w ^b (had weak NO inhibitory effect or cytotoxicity with an NO production rate less than 50% or the cell viability more than 50% at a concentration of 50 μM)”. The same compound registered a concentration for half-maximal inhibition (IC50) in data set [1] greater than 50 µM.

As to `CC(C)[C@]12O[C@H]1[C@@H]1O[C@]13[C@]1(O[C@H]1C[C@H]1C4=C(CC[C@@]13C)C(=O)OC4)[C@@H]2O` [triptolide], in the data set on RAW 264.7 cells, the “Therapeutic Index (TI, = TC50/IC50)” value came to 1.08 and the “Cytotoxicity TC50” value was found to be 0.071 µM. In addition, the IC50 in data set [1] was determined as 0.066 µM.

`CC(C)c1ccc2c(c1O)CC[C@H]1C3=C(CC[C@]21C)C(=O)OC3` [triptophenolide] came in with a concentration for half-maximal inhibition (IC50) in data set [1] of 43.1 µM.

As to `CC(C)C1=CC(=O)C2=C(CC[C@H]3[C@@](C)(CO)C(=O)CC[C@]23C)C1=O` [triptoquinone B], in the data set on RAW 264.7 cells, the “Therapeutic Index (TI, = TC50/IC50)” value is given as 0.0031 and the “Cytotoxicity TC50” value is 0.11 µM. In data set [1], this compound came in with an IC50 of 35.6 µM.

Take `CC(=O)OC[C@]12[C@H](OC(C)=O)[C@H](OC(C)=O)[C@@H]3[C@@H](OC(C)=O)[C@@]14O[C@@]3(C)COC(=O)c1cccnc1CCC(C)C(=O)O[C@@H]([C@H](OC(=O)c1ccco1)[C@@H]2OC(C)=O)[C@]4(C)O` (stereo partly shown) [wilforgine]: in the data set on RAW 264.7 cells, the “Cytotoxicity TC50” value is “w (had weak NO inhibitory effect or cytotoxicity with an NO production rate less than 50% or the cell viability more than 50% at a concentration of 50 μM)”. Also, the “NO Inhibitory Effect IC50” value in data set [1] is recorded as “w (had weak NO inhibitory effect or cytotoxicity with an NO production rate less than 50% or the cell viability more than 50% at a concentration of 50 μM)”.

For `CC(=O)OC[C@]12[C@H](OC(C)=O)[C@H](OC(C)=O)[C@@H]3[C@@H](OC(C)=O)[C@@]14O[C@@]3(C)COC(=O)c1cccnc1CCC(C)C(=O)O[C@@H]([C@H](OC(=O)c1ccccc1)[C@@H]2OC(C)=O)[C@]4(C)O` (stereo partly shown) [wilforine], in the data set with RAW 264.7 cells, the “Cytotoxicity TC50” value is on record as “w (had weak NO inhibitory effect or cytotoxicity with an NO production rate less than 50% or the cell viability more than 50% at a concentration of 50 μM)”. Also, the “NO Inhibitory Effect IC50” value in data set [1] is listed as “w (had weak NO inhibitory effect or cytotoxicity with an NO production rate less than 50% or the cell viability more than 50% at a concentration of 50 μM)”.

Consider `CC1(C)[C@@H](O)CC[C@]2(C)[C@H]3CC=C4[C@@H]5C[C@@]6(C)C[C@H](OC6=O)[C@]5(C)CC[C@@]4(C)[C@]3(C)CC[C@@H]12` [wilforlide A], for which, in data set [2], the oral bioavailability entry is on record as “extremely low”. For the same compound, the “Cytotoxicity TC50” value in the data set with RAW 264.7 cells was “nu (Had no NO inhibitory effect or cytotoxicity with an NO production rate less than 0 or cell viability more than 100% at a concentration of 50 μM)”. Besides, in the data set with RAW 264.7 cells (up to 50 μM), the “cytotoxicity / influence on cell viability, in words” value was “negligible”. For the same compound, the “NO inhibitory effect / anti-inflammatory activity, in words” value in data set [1] (LPS-induced RAW 264.7 cells, up to 50 μM) is given as “negligible anti-inflammatory activity”. Also, in data set [1], the IC50 was greater than 50 µM.

As to `CC(=O)OCC12C(OC(C)=O)C(OC(C)=O)C3C(OC(C)=O)C14OC3(C)COC(=O)c1cccnc1CCC(C)(OC(=O)c1ccccc1)C(=O)OC(C(OC(C)=O)C2OC(C)=O)C4(C)O` (stereo not shown) [wilfornine A], the “Cytotoxicity TC50” value in the data set on RAW 264.7 cells was “w (had weak NO inhibitory effect or cytotoxicity with an NO production rate less than 50% or the cell viability more than 50% at a concentration of 50 μM)”. Besides, the “NO Inhibitory Effect IC50” value in data set [1] is reported as “w (had weak NO inhibitory effect or cytotoxicity with an NO production rate less than 50% or the cell viability more than 50% at a concentration of 50 μM)”.

As for `CC(=O)OC[C@]12[C@H](OC(C)=O)[C@H](OC(C)=O)[C@@H]3[C@@H](OC(C)=O)[C@@]14O[C@@]3(C)COC(=O)c1cccnc1CCC(C)(O)C(=O)O[C@@H]([C@H](OC(=O)c1ccco1)[C@@H]2OC(C)=O)[C@]4(C)O` (stereo partly shown) [wilfortrine], the “Cytotoxicity TC50” value in the data set on RAW 264.7 cells was “nu (Had no NO inhibitory effect or cytotoxicity with an NO production rate less than 0 or cell viability more than 100% at a concentration of 50 μM)”. The compound further gave an IC50 in data set [1] greater than 50 µM.

The values are drawn from article PMC9416487, “Comprehensive Evaluation of the Quality of Tripterygium Glycosides Tablets Based on Multi-Component Quantification Combined with an In Vitro Biological Assay” (Molecules, 2022).
